How the values were obtained:
[1] = target: T1, Beta-hexosaminidase subunit beta (Homo sapiens, UniProt P07686); experiment: Inhibition of human beta hexosaminidase assessed as inhibitory constant using 4-methylumbelliferyl N-acetyl-beta-D-glucosaminide dihydrate as substrate measured every 60 sec for 45 mins by fluorescence spectrophotometry
T1 sequence (P07686 whole entry): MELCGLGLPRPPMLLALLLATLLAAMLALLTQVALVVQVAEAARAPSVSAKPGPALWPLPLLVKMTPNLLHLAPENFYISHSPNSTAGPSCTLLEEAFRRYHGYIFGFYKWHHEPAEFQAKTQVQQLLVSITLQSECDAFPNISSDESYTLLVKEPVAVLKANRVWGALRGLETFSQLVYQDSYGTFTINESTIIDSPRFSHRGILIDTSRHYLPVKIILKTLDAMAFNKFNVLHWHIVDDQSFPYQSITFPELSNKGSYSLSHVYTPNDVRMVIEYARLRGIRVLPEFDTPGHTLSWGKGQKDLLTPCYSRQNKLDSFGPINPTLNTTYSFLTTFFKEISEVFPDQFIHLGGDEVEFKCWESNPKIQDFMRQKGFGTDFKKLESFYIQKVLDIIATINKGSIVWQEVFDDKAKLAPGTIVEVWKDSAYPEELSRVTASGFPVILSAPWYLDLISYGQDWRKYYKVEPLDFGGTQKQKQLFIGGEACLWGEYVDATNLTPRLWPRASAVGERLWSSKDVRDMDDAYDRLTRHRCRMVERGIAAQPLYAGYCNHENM

[2] = Half life in Wistar Han rat at 2 mg/kg, iv; format: ADME, organism-based; details: in vivo
[3] = Oral bioavailability in Wistar Han rat at 3 mg/kg; format: ADME, organism-based; details: in vivo
[4] = AUCN in Wistar Han rat at 3 mg/kg, po; format: ADME, organism-based; details: in vivo
[5] = Drug uptake in rat brain at 3 mg/kg, po measured after 8 hrs; format: ADME, organism-based; details: in vivo
Rattus norvegicus = experiment: Elevation of O-protein in rat brain at 3 mg/kg, po measured after 8 hrs relative to control; format: functional
[6] = Clearance in Wistar Han rat at 2 mg/kg, iv; format: ADME, organism-based; details: in vivo
MDR1 = experiment: Apparent permeability in pig LLC-PK1 cells transfected with MDR1; format: ADME, cell-based, Sus scrofa
[7] = Volume of distribution at steady state in Wistar Han rat at 2 mg/kg, iv or 3 mg/kg, po; format: ADME, organism-based; details: in vivo, read-out: Vdss
[8] = Ratio of drug uptake in rat brain to plasma at 3 mg/kg, po measured after 8 hrs; format: ADME, organism-based; details: read-out: BPR
Protein O-GlcNAcase [9] = target: T2, Protein O-GlcNAcase (Rattus norvegicus, UniProt Q8VIJ5); experiment: Inhibition of OGA in rat PC12 cells assessed as OGlcNAcylated protein level incubated for 24 hrs by ELISA; format: cell-based
T2 sequence (Q8VIJ5 whole entry): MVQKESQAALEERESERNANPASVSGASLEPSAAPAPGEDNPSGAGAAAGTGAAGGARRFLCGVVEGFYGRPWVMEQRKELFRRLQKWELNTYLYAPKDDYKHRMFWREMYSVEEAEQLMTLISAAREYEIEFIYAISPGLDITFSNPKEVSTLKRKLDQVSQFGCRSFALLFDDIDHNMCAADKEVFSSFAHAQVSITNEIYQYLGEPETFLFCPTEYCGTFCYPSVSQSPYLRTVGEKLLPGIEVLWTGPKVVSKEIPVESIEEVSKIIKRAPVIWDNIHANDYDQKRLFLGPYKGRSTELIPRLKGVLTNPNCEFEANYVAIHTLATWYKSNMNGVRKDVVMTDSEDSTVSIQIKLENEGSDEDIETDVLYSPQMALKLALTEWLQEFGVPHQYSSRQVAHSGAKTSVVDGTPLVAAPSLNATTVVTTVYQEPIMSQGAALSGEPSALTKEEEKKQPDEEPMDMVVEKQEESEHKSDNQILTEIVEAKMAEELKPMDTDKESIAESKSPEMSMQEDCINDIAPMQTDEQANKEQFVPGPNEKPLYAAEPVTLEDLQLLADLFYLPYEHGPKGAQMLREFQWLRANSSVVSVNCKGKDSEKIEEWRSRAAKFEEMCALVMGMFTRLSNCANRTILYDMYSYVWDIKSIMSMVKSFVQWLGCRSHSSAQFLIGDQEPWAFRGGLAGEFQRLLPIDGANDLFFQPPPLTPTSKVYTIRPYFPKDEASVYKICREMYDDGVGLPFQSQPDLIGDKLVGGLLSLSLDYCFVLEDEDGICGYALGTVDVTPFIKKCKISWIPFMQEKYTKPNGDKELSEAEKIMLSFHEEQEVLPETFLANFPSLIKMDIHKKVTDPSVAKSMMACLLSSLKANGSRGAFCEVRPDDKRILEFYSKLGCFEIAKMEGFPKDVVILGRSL

Protein O-GlcNAcase [10] = target: T3, Protein O-GlcNAcase (Homo sapiens, UniProt O60502); experiment: Inhibition of recombinant human OGA
T3 sequence (O60502 whole entry): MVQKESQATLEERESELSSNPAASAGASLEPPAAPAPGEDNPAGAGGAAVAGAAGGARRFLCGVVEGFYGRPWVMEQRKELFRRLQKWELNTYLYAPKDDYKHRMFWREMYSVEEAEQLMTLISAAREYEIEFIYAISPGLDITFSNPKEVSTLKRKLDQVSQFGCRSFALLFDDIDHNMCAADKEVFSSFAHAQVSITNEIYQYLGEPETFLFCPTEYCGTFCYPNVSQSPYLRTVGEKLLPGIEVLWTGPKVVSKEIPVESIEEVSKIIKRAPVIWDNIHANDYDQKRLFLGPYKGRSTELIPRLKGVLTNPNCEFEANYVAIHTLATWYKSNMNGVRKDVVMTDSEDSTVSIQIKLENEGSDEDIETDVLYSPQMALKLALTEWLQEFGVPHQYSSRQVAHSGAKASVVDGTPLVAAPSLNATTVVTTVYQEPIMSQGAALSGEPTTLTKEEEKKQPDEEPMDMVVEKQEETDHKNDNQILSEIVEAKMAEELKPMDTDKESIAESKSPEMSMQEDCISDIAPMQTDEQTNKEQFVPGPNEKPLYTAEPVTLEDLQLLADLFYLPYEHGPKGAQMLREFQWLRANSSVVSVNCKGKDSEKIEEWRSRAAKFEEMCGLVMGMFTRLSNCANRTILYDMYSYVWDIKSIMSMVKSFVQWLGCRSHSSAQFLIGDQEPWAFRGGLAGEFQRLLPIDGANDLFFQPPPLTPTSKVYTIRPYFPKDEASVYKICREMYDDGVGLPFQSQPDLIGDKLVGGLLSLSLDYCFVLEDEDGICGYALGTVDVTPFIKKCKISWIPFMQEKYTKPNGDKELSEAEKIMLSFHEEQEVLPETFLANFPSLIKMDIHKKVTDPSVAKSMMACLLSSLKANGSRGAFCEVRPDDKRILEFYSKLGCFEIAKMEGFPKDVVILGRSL

[11] = Fraction unbound in Wistar Han rat plasma at 2.5 uM by equilibrium dialysis; format: ADME, cell-free
[12] = Fraction unbound in human plasma at 2.5 uM by equilibrium dialysis; format: ADME, cell-free
Cytochrome P450 2D6 = Cytochrome P450 2D6 (Homo sapiens, UniProt P10635); experiment: Inhibition of CYP2D6 (unknown origin); format: ADME
Chain of Cytochrome P450 2D6 (P10635 whole entry): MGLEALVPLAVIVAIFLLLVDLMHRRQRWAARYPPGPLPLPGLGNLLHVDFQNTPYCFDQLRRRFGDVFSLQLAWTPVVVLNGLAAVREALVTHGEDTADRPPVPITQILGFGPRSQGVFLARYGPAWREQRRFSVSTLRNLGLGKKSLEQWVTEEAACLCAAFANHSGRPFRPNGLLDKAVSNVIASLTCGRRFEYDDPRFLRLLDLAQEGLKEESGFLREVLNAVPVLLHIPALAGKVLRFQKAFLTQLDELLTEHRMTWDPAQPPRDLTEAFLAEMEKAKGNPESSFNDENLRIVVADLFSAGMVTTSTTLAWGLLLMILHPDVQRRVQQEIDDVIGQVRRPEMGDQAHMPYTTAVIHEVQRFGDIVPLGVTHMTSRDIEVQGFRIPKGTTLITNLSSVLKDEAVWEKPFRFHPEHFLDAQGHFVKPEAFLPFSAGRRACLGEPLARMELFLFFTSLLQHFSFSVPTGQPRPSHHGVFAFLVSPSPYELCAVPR

Cytochrome P450 3A4 = Cytochrome P450 3A4 (Homo sapiens, UniProt P08684); experiment: Inhibition of CYP3A4 (unknown origin); format: ADME
Chain of Cytochrome P450 3A4 (P08684 whole entry): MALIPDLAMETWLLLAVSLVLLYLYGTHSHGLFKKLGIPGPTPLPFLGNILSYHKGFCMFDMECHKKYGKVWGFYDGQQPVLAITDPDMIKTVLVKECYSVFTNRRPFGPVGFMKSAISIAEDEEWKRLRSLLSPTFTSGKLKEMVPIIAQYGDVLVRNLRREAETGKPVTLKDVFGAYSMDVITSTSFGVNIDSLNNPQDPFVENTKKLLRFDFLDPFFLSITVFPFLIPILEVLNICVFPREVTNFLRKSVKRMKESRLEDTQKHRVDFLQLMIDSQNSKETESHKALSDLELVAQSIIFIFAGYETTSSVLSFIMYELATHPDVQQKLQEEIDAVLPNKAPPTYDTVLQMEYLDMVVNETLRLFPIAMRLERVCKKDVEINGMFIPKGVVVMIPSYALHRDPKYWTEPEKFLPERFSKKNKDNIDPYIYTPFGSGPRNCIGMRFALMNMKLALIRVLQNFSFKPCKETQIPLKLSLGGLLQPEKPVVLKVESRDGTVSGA

[13] = target: Voltage-gated inwardly rectifying potassium channel KCNH2 (Homo sapiens, UniProt Q12809); experiment: Displacement of MK-0499 from human ERG
Chain of Voltage-gated inwardly rectifying potassium channel KCNH2 (Q12809 whole entry): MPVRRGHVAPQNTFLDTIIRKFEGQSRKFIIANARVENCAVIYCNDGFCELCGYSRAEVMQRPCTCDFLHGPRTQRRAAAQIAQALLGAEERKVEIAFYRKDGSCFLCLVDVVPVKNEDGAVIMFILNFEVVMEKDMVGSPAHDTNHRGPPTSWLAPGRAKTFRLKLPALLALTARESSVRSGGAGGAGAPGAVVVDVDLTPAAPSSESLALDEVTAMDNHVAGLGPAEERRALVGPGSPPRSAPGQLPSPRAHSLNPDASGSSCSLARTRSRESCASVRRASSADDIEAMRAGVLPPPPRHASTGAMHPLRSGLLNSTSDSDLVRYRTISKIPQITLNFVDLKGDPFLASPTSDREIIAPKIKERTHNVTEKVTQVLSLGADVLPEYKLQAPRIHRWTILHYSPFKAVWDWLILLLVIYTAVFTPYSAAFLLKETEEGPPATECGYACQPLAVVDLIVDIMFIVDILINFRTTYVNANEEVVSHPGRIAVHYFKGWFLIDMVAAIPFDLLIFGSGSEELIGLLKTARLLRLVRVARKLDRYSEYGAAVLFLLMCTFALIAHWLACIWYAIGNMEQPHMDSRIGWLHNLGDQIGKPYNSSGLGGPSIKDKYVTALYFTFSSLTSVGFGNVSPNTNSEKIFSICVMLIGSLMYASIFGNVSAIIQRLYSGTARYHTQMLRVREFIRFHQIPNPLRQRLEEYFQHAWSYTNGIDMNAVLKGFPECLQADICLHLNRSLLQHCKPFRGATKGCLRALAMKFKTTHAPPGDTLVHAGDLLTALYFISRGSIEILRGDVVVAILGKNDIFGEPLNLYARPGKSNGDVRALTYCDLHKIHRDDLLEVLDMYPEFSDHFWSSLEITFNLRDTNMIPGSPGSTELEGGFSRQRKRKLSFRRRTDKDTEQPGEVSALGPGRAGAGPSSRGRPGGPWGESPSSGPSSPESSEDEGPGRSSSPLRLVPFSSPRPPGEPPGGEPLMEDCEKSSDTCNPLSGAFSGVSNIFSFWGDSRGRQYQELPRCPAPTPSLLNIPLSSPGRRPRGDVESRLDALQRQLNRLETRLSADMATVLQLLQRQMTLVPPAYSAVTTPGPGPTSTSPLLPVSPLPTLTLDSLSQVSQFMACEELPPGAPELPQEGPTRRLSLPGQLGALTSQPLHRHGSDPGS

[14] = target: Sodium channel protein type 5 subunit alpha (Homo sapiens, UniProt Q14524); experiment: Inhibition of Nav1.5 (unknown origin)
Chain of Sodium channel protein type 5 subunit alpha (Q14524 whole entry): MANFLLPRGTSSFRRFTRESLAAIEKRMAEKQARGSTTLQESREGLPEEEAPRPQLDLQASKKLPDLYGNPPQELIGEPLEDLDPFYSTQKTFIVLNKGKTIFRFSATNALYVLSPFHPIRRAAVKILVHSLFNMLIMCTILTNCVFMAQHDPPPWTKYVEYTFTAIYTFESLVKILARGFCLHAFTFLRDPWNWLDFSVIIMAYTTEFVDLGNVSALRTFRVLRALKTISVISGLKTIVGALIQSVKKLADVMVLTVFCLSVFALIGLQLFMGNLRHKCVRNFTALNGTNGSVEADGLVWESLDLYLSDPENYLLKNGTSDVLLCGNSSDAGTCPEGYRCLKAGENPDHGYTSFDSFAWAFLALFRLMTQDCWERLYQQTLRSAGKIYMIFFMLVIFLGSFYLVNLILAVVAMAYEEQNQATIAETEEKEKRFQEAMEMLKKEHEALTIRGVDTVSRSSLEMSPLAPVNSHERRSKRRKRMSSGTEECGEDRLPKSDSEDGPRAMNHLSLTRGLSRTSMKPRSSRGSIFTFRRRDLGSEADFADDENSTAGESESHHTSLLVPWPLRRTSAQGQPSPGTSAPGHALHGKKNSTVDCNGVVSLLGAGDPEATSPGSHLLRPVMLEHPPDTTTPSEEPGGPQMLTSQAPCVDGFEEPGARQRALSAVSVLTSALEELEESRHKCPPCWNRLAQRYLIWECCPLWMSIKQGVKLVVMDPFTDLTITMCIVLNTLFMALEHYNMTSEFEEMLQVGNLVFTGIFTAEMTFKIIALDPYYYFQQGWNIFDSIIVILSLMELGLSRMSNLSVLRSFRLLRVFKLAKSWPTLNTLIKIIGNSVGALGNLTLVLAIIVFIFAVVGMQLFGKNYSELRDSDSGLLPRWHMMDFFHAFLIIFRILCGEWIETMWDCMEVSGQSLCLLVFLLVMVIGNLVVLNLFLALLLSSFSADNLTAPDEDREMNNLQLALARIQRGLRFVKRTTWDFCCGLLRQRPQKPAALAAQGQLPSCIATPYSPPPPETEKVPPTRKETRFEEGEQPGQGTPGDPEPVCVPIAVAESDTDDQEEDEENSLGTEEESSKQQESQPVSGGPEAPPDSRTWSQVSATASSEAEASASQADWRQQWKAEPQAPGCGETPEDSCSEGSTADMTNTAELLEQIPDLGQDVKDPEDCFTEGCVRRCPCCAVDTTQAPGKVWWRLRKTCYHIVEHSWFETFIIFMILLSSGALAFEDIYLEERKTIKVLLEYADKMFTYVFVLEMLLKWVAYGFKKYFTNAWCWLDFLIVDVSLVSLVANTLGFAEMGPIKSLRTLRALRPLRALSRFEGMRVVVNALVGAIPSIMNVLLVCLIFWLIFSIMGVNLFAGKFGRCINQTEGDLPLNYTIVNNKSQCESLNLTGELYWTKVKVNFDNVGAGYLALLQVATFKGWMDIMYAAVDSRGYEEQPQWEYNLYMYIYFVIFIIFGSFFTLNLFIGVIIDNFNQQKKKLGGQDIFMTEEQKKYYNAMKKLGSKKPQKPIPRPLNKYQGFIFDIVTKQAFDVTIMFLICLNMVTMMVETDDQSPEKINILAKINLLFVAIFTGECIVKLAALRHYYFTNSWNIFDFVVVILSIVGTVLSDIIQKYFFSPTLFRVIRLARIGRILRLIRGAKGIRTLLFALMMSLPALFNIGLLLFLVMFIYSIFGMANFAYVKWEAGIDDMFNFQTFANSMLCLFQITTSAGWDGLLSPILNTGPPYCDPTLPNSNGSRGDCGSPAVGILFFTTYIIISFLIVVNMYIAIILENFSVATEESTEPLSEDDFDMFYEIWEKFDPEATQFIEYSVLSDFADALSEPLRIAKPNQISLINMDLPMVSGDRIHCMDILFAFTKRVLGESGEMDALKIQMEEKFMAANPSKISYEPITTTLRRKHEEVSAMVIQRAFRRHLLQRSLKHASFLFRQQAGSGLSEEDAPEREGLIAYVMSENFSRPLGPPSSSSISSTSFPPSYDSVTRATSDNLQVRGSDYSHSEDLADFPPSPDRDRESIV

[15] = target: T4, Nuclear receptor subfamily 1 group I member 2 (Homo sapiens, UniProt O75469); experiment: Activation of PXR (unknown origin) assessed as CYP3A4 induction
T4 sequence (O75469 whole entry): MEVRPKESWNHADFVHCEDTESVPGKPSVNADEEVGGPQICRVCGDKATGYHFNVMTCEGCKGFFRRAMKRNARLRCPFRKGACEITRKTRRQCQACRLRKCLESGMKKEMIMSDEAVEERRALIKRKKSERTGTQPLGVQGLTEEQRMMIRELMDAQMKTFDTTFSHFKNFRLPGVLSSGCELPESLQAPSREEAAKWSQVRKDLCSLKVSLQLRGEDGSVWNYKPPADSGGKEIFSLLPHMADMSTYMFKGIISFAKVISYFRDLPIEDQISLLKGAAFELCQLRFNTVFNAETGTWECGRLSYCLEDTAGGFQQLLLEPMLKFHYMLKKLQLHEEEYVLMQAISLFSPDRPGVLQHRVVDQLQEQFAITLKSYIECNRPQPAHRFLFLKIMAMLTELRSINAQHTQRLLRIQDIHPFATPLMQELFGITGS

[16] = target: Voltage-dependent L-type calcium channel subunit alpha-1C (Homo sapiens, UniProt Q13936); experiment: Inhibition of Cav1.2 (unknown origin)
Cytochrome P450 2C9 = Cytochrome P450 2C9 (Homo sapiens, UniProt P11712); experiment: Inhibition of CYP2C9 (unknown origin); format: ADME
Chain of Cytochrome P450 2C9 (P11712 whole entry): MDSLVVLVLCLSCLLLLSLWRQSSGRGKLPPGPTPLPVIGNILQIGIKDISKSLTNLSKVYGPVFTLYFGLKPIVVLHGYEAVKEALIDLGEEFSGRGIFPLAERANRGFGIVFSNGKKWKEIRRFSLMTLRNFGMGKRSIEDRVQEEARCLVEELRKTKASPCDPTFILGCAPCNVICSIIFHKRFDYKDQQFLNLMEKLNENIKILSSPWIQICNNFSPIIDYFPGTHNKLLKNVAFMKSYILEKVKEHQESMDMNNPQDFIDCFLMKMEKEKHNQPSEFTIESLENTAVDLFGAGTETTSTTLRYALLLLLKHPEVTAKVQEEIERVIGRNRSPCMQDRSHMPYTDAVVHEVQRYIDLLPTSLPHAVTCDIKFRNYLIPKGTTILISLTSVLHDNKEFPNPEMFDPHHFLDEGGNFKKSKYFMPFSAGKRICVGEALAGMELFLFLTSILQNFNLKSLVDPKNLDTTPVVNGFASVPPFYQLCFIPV

[17] = Oral bioavailability in Wistar Han rat at 10 mg/kg; format: ADME, organism-based; details: in vivo
[18] = Volume of distribution at steady state in Wistar Han rat at 2 mg/kg, iv or 10 mg/kg, po; format: ADME, organism-based; details: in vivo, read-out: Vdss
[19] = AUCN in Wistar Han rat at 10 mg/kg, po; format: ADME, organism-based; details: in vivo

CCCNC1=N[C@@H]2[C@@H](O)[C@H](O)[C@@H](C(F)F)O[C@@H]2S1
Ki [1]: > 10 µM
half-life [2]: 3.89 h
bioavailability [3]: 44.8%
AUC/dose [4]: 0.376 µM·kg·h/mg
Drug uptake [5]: 0.193 nmol/g
fold change (FC) (Rattus norvegicus): 1.81
clearance [6]: 72.6 mL/min/kg
Papp (MDR1): 14 ×10⁻⁶ cm/s
Vd [7]: 5.99 L/kg
Kp at 8 h [8]: 8.81
EC50 (Protein O-GlcNAcase [9]): 0.0414 µM
Ki (Protein O-GlcNAcase [10]): 0.0053 µM

CNC1=N[C@@H]2[C@@H](O)[C@H](O)[C@@H](C(F)F)O[C@@H]2S1
Ki [1]: 1.3 µM
half-life [2]: 1.48 h
bioavailability [3]: 93.8%
AUC/dose [4]: 2.54 µM·kg·h/mg
Drug uptake [5]: 0.133 nmol/g
fraction unbound at 2.5 µM [11]: 0.83
fold change (FC) (Rattus norvegicus): 2
clearance [6]: 27.1 mL/min/kg
Papp (MDR1): 5.7 ×10⁻⁶ cm/s
Vd [7]: 1.72 L/kg
fraction unbound at 2.5 µM [12]: 0.77
Kp at 8 h [8]: 1.33
EC50 (Protein O-GlcNAcase [9]): 0.00171 µM
Ki (Protein O-GlcNAcase [10]): 0.00036 µM

CCNC1=N[C@H]2[C@H](O[C@H](CO)C[C@@H]2O)S1
IC50 (Cytochrome P450 2D6): > 50 µM
Ki [1]: > 10 µM
IC50 (Cytochrome P450 3A4): > 50 µM
IC50 [13]: > 30 µM
IC50 [14]: > 30 µM
EC50 [15]: > 30 µM
IC50 [16]: > 30 µM
Papp (MDR1): 7 ×10⁻⁶ cm/s
IC50 (Cytochrome P450 2C9): > 50 µM
Ki (Protein O-GlcNAcase [10]): > 3 µM

CCNC1=N[C@@H]2[C@@H](F)[C@H](O)[C@@H](CO)O[C@@H]2S1
IC50 (Cytochrome P450 2D6): > 50 µM
Ki [1]: > 10 µM
IC50 (Cytochrome P450 3A4): > 50 µM
IC50 [13]: > 30 µM
bioavailability [17]: 104%
IC50 [14]: > 30 µM
half-life [2]: 2.4 h
EC50 [15]: > 30 µM
Vd [18]: 2 L/kg
IC50 [16]: > 30 µM
clearance [6]: 31.9 mL/min/kg
Papp (MDR1): 2.7 ×10⁻⁶ cm/s
AUC/dose [19]: 2.16 µM·kg·h/mg
IC50 (Cytochrome P450 2C9): > 50 µM
EC50 (Protein O-GlcNAcase [9]): 0.443 µM
Ki (Protein O-GlcNAcase [10]): 0.029 µM

CCNC1=N[C@@H]2C[C@H](O)[C@@H](CO)O[C@@H]2S1
IC50 (Cytochrome P450 2D6): > 50 µM
Ki [1]: > 10 µM
IC50 (Cytochrome P450 3A4): > 50 µM
IC50 [13]: > 30 µM
IC50 [14]: > 30 µM
EC50 [15]: > 30 µM
IC50 [16]: > 30 µM
Papp (MDR1): 2.6 ×10⁻⁶ cm/s
IC50 (Cytochrome P450 2C9): > 50 µM
